According to ChEMBL document CHEMBL1921674, “Novel tricyclic inhibitors of IKK2: discovery and SAR leading to the identification of 2-methoxy-N-((6-(1-methyl-4-(methylamino)-1,6-dihydroimidazo[4,5-d]pyrrolo[2,3-b]pyridin-7-yl)pyridin-2-yl)methyl)acetamide (BMS-066)” (Bioorg Med Chem Lett, 2011):
Calls of active or inactive are those of the source. No cut-off for these calls is given here.

Columns and labels:
Mus musculus [1] = experiment: Reduction in TNBS-induced colitis in mouse […] model assessed as decrease of body weight at 3 mg/kg, administered intrarectally 1 day before TNBS challenge twice daily for 4 days; type: functional; design: scale not given: the % may be the effect or the level left
[2] = AUC in SJL mouse intestine at 8 mg/kg, iv after 8 hrs; type: ADME, organism-based; design: time < 8 hr, dose 8 mg/kg, route intravenous
[3] = biological target: Ephrin type-A receptor 1 (Homo sapiens) (UniProt P21709); experiment: Inhibition of EPHA1 at 10 uM
Ephrin type-B receptor 1 = Ephrin type-B receptor 1 (Homo sapiens, UniProt P54762); experiment: Inhibition of EphB1
[4] = Oral bioavailability in Lewis rat at 10 mg/kg; type: ADME, organism-based; settings: in vivo
[5] = AUC in Sprague-Dawley rat plasma at 2 mg/kg, iv after 8 hrs; type: ADME, organism-based; design: time < 8 hr, dose 2 mg/kg, route intravenous
[6] = Lipophilicity, log P of the compound by HPLC analysis; type: physicochemical
Cytochrome P450 2D6 = Cytochrome P450 2D6 (Homo sapiens, UniProt P10635); experiment: Inhibition of CYP2D6; type: ADME
[7] = biological target: Vascular endothelial growth factor receptor 3 (Homo sapiens, UniProt P35916); experiment: Inhibition of FLT4
[8] = Clearance in Lewis rat at 2 mg/kg, iv; type: ADME, organism-based; design: dose 2 mg/kg, route intravenous; settings: in vivo
[9] = Volume of distribution at steady state in dog at 1 mg/kg, iv; type: ADME, organism-based, Canis lupus familiaris; design: dose 1 mg/kg, route intravenous; settings: in vivo, read-out: Vdss
[10] = Oral bioavailability in dog at 5 mg/kg; type: ADME, organism-based, Canis lupus familiaris; settings: in vivo
Mus musculus [11] = experiment: Reduction in TNBS-induced colitis in intrarectally dosed mouse […] model assessed as decrease of colon length administered 1 day before TNBS challenge twice daily for 4 days; type: functional, organism-based
[12] = AUC in SJL mouse liver at 8 mg/kg, iv after 8 hrs; type: ADME, organism-based; design: time < 8 hr, dose 8 mg/kg, route intravenous
[13] = Protein binding in rat serum; type: ADME, cell-free; settings: read-out: PB (converted)
[14] = AUC in Sprague-Dawley rat intestine at 2 mg/kg, iv after 8 hrs; type: ADME, organism-based; design: time < 8 hr, dose 2 mg/kg, route intravenous
PBMC = experiment: Antiinflammatory activity in human PBMC assessed as inhibition of LPS-induced TNFalpha release treated for 5 mins before LPS challenge measured after 4 hrs by ELISA; type: functional, cell-based; settings: Homo sapiens, PBMC
[15] = Cmax in dog at 5 mg/kg, po; type: ADME, organism-based, Canis lupus familiaris; design: dose 5 mg/kg, route oral; settings: in vivo
[16] = biological target: T1, Protein-tyrosine kinase 6 (Homo sapiens, UniProt Q13882); experiment: Inhibition of BRK
Target sequence in this assay (Q13882 whole entry): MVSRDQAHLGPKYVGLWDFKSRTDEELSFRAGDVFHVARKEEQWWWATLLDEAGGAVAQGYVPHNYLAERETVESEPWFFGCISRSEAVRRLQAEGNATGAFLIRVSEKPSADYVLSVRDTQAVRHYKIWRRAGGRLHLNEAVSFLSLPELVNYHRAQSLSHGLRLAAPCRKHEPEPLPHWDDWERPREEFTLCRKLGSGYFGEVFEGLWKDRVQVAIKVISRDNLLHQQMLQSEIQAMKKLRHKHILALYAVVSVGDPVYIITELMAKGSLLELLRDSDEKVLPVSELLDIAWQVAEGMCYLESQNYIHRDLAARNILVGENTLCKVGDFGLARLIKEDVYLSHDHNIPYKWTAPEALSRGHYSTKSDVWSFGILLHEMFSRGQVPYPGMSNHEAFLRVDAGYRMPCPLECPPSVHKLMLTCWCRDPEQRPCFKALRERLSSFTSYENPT

[17] = biological target: Proto-oncogene tyrosine-protein kinase receptor Ret (Homo sapiens, UniProt P07949); experiment: Inhibition of RET at 10 uM
Salmonella typhimurium = experiment: Induction of mutagenicity in Salmonella Typhimurium by Ames test; type: toxicity, organism-based; settings: salmonella enterica subsp. enterica serovar typhimurium
[18] = AUC in SJL mouse plasma at 8 mg/kg, iv after 8 hrs; type: ADME, organism-based; design: time < 8 hr, dose 8 mg/kg, route intravenous
[19] = Cmax in mouse at 3 mg/kg, po; type: ADME, organism-based; design: dose 3 mg/kg, route oral; settings: in vivo
[20] = biological target: T1, Protein-tyrosine kinase 6; experiment: Inhibition of BRK at 10 uM
Target sequence in this assay (Q13882 whole entry, looked up): as the sequence (Q13882 whole entry) above

[21] = Half life in mouse at 2 mg/kg, iv; type: ADME, organism-based; design: dose 2 mg/kg, route intravenous; settings: in vivo
Blood = experiment: Antiinflammatory activity in rat whole blood assessed as inhibition of LPS-induced TNFalpha release treated for 45 mins before LPS challenge measured after 6 hrs by ELISA; type: functional, tissue-based
[22] = Dissociation constant, pKa of the compound; type: physicochemical
[23] = Volume of distribution at steady state in Lewis rat at 2 mg/kg, iv; type: ADME, organism-based; design: dose 2 mg/kg, route intravenous; settings: in vivo, read-out: Vdss
hERG (KCNH2) = hERG (KCNH2) (Homo sapiens, UniProt Q12809); experiment: Inhibition of human ERG at 30 uM by patch clamp assay
Cytochrome P450 2C9 = Cytochrome P450 2C9 (Homo sapiens, UniProt P11712); experiment: Inhibition of CYP2C9; type: ADME
Cytochrome P450 2C19 = Cytochrome P450 2C19 (Homo sapiens, UniProt P33261); experiment: Inhibition of CYP2C19; type: ADME
Mus musculus [24] = experiment: Reduction in TNBS-induced colitis in mouse […] model assessed as decrease of body weight loss at 10 mg/kg, administered intrarectally 1 day before TNBS challenge twice daily for 4 days; type: functional, organism-based; design: dose 10 mg/kg
Mus musculus [25] = experiment: Reduction in TNBS-induced colitis in intrarectally dosed mouse […] model assessed as decrease of body weight loss administered 1 day before TNBS challenge twice daily for 4 days; type: functional, organism-based
Cytochrome P450 1A2 = Cytochrome P450 1A2 (Homo sapiens, UniProt P05177); experiment: Inhibition of CYP1A2; type: ADME
Mus musculus [26] = experiment: Reduction in TNBS-induced colitis in mouse […] model assessed as decrease of colon length at 10 mg/kg, administered intrarectally 1 day before TNBS challenge twice daily for 4 days; type: functional, organism-based; design: dose 10 mg/kg
[27] = Oral bioavailability in mouse at 3 mg/kg; type: ADME, organism-based; settings: in vivo
[28] = biological target: Vascular endothelial growth factor receptor 2 (Homo sapiens, UniProt P35968); experiment: Inhibition of KDR
[29] = Clearance in mouse at 2 mg/kg, iv; type: ADME, organism-based; design: dose 2 mg/kg, route intravenous; settings: in vivo
[30] = Half life in Lewis rat at 2 mg/kg, iv; type: ADME, organism-based; design: dose 2 mg/kg, route intravenous; settings: in vivo
[31] = biological target: Inhibitor of nuclear factor kappa-B kinase subunit alpha (Homo sapiens) (UniProt O15111); experiment: Inhibition of IKK1 at 10 uM
[32] = Clearance in dog at 1 mg/kg, iv; type: ADME, organism-based, Canis lupus familiaris; design: dose 1 mg/kg, route intravenous; settings: in vivo
[33] = biological target: T2, Inhibitor of nuclear factor kappa-B kinase subunit beta (Homo sapiens, UniProt O14920); experiment: Inhibition of human IKK2-mediated GST-IkappaBalpha protein fusion phosphorylation
T2 sequence (O14920 whole entry): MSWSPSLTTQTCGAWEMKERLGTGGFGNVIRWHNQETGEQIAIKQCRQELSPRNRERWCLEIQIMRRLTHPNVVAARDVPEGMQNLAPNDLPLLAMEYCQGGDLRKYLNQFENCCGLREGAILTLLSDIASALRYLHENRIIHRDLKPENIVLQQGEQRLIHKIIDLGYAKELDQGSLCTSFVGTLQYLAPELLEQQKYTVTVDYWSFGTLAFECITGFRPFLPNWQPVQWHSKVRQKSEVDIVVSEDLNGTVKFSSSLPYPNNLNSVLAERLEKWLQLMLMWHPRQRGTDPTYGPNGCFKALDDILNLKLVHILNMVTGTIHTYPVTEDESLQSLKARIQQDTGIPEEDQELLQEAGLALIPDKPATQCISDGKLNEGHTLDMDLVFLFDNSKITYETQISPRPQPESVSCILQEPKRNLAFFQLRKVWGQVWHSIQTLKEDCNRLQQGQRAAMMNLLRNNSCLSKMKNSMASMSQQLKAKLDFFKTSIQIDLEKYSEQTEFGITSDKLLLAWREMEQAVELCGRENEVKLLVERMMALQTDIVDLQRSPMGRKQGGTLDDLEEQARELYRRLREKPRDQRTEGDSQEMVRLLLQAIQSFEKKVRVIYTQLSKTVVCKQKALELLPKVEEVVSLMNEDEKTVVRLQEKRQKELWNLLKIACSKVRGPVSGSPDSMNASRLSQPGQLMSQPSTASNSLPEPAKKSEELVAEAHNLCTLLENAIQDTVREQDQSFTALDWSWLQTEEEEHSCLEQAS

[34] = AUC in Lewis rat at 10 mg/kg, po; type: ADME, organism-based; design: dose 10 mg/kg, route oral; settings: plasma
[35] = AUC in Sprague-Dawley rat liver at 2 mg/kg, iv after 8 hrs; type: ADME, organism-based; design: time < 8 hr, dose 2 mg/kg, route intravenous

Chain of Vascular endothelial growth factor receptor 3 (P35916 whole entry): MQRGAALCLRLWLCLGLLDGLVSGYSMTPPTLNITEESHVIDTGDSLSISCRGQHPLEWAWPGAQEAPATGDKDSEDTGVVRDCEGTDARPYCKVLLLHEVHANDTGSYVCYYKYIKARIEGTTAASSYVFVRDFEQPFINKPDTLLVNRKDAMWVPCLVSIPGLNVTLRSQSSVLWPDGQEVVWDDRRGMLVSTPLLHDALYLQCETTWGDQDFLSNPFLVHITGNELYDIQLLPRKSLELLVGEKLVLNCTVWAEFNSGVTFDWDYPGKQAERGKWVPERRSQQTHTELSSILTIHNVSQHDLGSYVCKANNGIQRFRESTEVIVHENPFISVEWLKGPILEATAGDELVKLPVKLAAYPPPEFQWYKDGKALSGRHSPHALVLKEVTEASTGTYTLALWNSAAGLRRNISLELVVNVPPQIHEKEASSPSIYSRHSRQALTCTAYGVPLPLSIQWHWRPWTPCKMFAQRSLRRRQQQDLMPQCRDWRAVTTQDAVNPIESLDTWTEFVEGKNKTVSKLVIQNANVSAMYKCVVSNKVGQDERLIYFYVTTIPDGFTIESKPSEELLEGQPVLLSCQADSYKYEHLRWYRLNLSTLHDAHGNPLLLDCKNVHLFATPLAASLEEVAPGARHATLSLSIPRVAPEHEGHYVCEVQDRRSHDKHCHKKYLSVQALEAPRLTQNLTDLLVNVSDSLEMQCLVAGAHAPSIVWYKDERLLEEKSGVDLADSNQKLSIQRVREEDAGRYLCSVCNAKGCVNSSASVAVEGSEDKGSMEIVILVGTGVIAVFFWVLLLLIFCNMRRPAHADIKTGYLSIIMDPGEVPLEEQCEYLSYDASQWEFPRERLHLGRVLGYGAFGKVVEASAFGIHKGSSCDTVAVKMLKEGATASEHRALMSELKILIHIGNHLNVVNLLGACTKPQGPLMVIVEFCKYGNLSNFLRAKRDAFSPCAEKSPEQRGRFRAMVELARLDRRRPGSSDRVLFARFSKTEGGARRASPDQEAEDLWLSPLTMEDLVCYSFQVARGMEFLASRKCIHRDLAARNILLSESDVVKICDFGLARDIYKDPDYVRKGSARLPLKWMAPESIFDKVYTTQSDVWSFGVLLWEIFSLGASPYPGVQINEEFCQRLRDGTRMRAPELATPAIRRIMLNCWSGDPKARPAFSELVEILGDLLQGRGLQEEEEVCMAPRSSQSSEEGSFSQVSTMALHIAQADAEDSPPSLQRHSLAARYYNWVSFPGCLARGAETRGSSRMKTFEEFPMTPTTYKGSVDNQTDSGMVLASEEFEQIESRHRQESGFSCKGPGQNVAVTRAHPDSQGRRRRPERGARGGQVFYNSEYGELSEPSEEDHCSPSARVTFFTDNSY
Chain of hERG (KCNH2) (Q12809 whole entry): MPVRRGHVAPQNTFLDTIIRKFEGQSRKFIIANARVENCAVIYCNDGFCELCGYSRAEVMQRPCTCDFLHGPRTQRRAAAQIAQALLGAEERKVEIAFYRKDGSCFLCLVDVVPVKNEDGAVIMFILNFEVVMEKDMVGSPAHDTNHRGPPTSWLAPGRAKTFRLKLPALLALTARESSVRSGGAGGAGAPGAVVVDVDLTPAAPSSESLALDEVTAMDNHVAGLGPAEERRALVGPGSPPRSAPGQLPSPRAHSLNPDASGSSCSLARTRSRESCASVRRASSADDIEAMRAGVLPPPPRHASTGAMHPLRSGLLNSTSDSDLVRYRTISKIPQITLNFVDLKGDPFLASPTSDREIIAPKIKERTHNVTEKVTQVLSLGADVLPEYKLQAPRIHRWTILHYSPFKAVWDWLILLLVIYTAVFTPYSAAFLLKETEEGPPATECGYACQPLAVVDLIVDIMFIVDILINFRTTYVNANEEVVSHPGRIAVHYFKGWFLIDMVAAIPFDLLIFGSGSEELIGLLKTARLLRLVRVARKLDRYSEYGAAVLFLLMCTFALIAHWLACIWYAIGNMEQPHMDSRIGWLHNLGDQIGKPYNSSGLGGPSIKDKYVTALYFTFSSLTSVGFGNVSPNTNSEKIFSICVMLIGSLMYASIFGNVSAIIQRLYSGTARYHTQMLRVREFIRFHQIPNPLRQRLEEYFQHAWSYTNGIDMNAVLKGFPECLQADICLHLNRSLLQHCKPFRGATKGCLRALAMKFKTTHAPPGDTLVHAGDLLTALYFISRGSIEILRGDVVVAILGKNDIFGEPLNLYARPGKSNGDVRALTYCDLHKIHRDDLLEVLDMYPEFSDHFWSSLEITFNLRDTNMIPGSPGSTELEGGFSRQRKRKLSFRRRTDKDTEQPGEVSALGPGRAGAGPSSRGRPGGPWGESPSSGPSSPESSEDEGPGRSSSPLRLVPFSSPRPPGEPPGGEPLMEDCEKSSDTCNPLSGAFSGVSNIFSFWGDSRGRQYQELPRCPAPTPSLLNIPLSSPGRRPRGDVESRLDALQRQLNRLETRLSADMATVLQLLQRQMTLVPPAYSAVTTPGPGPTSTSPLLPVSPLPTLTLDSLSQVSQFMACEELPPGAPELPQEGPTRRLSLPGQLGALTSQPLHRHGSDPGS
Chain of Ephrin type-A receptor 1 (Homo sapiens) (P21709 whole entry): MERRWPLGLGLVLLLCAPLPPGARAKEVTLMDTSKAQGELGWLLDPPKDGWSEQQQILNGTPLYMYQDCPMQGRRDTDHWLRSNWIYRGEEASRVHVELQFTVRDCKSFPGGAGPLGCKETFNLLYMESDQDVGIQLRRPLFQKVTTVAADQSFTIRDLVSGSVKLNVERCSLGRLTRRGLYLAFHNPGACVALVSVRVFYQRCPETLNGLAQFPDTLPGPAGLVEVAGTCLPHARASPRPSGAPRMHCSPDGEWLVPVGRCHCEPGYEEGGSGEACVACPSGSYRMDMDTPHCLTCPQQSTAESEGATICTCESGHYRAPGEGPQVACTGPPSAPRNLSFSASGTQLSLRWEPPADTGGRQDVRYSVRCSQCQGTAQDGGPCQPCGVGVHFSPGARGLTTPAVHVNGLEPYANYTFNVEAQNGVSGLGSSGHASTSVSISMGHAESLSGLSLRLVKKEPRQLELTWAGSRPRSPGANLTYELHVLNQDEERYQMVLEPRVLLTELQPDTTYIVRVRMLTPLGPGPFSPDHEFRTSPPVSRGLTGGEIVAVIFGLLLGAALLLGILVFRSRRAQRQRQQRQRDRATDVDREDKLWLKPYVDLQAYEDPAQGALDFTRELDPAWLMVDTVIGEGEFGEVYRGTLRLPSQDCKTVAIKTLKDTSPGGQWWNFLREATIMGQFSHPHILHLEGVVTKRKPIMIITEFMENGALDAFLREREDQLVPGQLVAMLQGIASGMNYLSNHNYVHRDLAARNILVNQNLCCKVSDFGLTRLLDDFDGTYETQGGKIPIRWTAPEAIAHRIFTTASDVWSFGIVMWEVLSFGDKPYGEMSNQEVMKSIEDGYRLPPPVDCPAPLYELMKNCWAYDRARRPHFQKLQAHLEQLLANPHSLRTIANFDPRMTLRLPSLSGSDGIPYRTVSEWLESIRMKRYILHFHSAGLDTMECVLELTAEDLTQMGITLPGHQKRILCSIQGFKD
Chain of Inhibitor of nuclear factor kappa-B kinase subunit alpha (Homo sapiens) (O15111 whole entry): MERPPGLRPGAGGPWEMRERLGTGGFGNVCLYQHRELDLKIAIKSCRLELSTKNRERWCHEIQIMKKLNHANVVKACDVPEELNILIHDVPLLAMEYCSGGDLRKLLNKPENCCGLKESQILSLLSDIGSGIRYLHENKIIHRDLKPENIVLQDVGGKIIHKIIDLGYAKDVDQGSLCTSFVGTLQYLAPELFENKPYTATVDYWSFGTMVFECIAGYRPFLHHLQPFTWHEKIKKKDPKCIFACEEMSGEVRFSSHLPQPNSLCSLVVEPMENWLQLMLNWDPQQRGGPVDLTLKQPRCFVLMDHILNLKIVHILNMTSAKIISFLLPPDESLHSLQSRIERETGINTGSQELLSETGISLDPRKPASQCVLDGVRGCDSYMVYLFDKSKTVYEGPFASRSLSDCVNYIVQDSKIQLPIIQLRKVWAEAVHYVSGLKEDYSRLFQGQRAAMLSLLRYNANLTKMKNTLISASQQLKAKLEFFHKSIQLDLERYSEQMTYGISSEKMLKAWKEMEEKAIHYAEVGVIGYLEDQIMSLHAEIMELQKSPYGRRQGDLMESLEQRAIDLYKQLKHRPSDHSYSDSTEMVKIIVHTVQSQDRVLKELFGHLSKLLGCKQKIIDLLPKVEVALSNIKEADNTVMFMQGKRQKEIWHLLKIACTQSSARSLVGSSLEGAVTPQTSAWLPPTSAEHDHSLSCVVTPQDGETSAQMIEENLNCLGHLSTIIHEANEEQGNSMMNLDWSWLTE

AUC at 8 h [2]: 1170 µM·h | inhibition [3]: > 75% | IC50 (Ephrin type-B receptor 1): 1.11 µM | bioavailability [4]: 90% | AUC at 8 h [5]: 13 µM·h | logP [6]: 2 | IC50 (Cytochrome P450 2D6): > 40 µM | IC50 [7]: 0.36 µM | clearance [8]: 4.5 mL/min/kg | Vd [9]: 0.6 L/kg | bioavailability [10]: 72% | AUC at 8 h [12]: 81 µM·h | fraction unbound [13]: 0.069 | AUC at 8 h [14]: 156 µM·h | Cmax [15]: 10.3 µM | IC50 [16]: 0.31 µM | inhibition [17]: > 75% | AUC at 8 h [18]: 18 µM·h | Cmax [19]: 1.6 µM | inhibition [20]: > 75% | half-life [21]: 0.66 h | IC50 (Blood): 1.7 µM | pKa [22]: 2.5 | Vd [23]: 0.5 L/kg | IC50 (Cytochrome P450 2C9): 25 µM | IC50 (Cytochrome P450 2C19): > 40 µM | IC50 (Cytochrome P450 1A2): > 40 µM | bioavailability [27]: 79% | IC50 [28]: 1.49 µM | clearance [29]: 52 mL/min/kg | half-life [30]: 3.7 h | inhibition [31]: > 75% | clearance [32]: 3.1 mL/min/kg | IC50 [33]: 0.009 µM | AUC [34]: 89 µM·h | AUC at 8 h [35]: 16 µM·h
Structure (SMILES): CNc1nc2[nH]c(-c3cccc(CNC(=O)COC)n3)cc2c2c1ncn2C
Activity (Mus musculus [1]): 10% | Activity (Mus musculus [11]): Dose-dependent effect | IC50 (PBMC): 0.15 µM | Activity (Salmonella typhimurium): Non-toxic | inhibition at 30 µM (hERG (KCNH2)): 18% | Activity (Mus musculus [24]): Active | Activity (Mus musculus [25]): Dose-dependent effect | Activity (Mus musculus [26]): Active
